Results as given in publication PMC5225183, “Fingerprinting of neurotoxic compounds using a mouse embryonic stem cell dual luminescence reporter assay” (Archives of Toxicology, 2016).

How the values were obtained:
[1] = test system: Tubulin α1 (Tα1) promoter; details: undifferentiated ESCs, 48 h exposure; lowest tested concentration with statistically significant decrease
Procedure, shortened: (§1)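 Mouse CGR8 ESCs carrying Tα1-firefly and EF1α-Renilla luciferase reporters, treated either undifferentiated (48 h exposure after 24 h plating) or as MS5-induced neurons (exposure day 6 to day 8). Dual-luciferase luminescence expressed as % promoter activity versus DMSO control wells; 5 µM methylmercury as positive control.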

[2] = test system: EF1α promoter; details: 48 h exposure; for LOAEL Neurons EF1α: ESC-derived neurons; for LOAEL ESC EF1α: undifferentiated ESCs
Procedure, shortened: as §1

[3] = test system: CGR8-2Luc ESCs; details: undifferentiated ESCs, 48 h exposure, PI assay (cytotoxicity)
Procedure, shortened: (§2)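 Mouse CGR8-2Luc ESCs in LIF-containing medium were exposed to compounds for 48 h; ESC-derived neurons (MS5 co-culture, replated day 5 in N2/bFGF medium) were exposed from day 6 to day 8. Read-outs: Tα1-FLuc, EF1α-RLuc and PI DNA content as % of control. LOAEL = lowest concentration giving a significant decrease versus baseline.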

[4] = test system: ESC-derived neurons; details: ESC-derived neurons, 48 h exposure, PI assay (cytotoxicity)
Procedure, shortened: as §2

[5] = Table S1, three classes; ref per compound in the footnotes of Table S1; cited from earlier work
[6] = test system: undifferentiated pluripotent stem cells (ESCs); assay: Dual luminescence reporter test system, undifferentiated ESCs (readout not separated); type: cell-based, mouse
Source text: Fig. 1 Synopsis of experimental protocols. The impact of compounds on neural promoter activity (FLuc, Firefly Luciferase under the control of the Tα1 promoter), general promoter activity (RLuc, Renilla Luciferase under the control of the EF1α promoter), and amount of DNA (PI, propidium iodide fluorescence in cell homogenates) was investigated in undifferentiated mouse embryonic pluripotent stem cells (ESCs) and on ESC-derived neurons. Arrows indicate the time of measurement of the three parameters. a Protocol for testing compounds effects on ESCs. CGR8-2Luc cells were plated on gelatin-coated 96-well plates in maintenance medium (BHK21 medium containing 10 % FCS, L-glutamine, NEAA, P/S, and LIF). Twenty-four hours later, cells were exposed to compounds for forty-eight hours. b Protocol for testing compounds on ESC-derived neurons. CGR8-2Luc cells were co-cultured with MS5 cells to induce neural differentiation in DMEM medium containing 15 % KO-serum, NEAA, β-mercaptoethanol, and P/S. On day 5, cells were detached and seeded on polyornithine-coated plates in DMEM medium containing N2 supplement, bFGF, and P/S; compound exposure was from day 6 to day 8
To test compounds on ESC-derived neurons, neuronal differentiation was carried out as previously described (Suter et al. [2009]; Xu et al. [2014]). Briefly, CGR8-2Luc cells were seeded on irradiated bone marrow-derived stromal MS5 cells and cultivated for 4 days in DMEM medium containing 15 % Knock-out™ Serum Replacement, non-essential amino acids, beta-mercaptoethanol, and penicillin/streptomycin. At day 5, cells were then re-plated (3 × 10^5 cells/cm^2) on polyornithine-coated 96-well plates in N2 medium containing DMEM, N2 supplement, penicillin/streptomycin, and 10 ng/ml basic human fibroblast growth factor (bFGF) (Invitrogen). […] To assess toxicity of compounds on undifferentiated pluripotent stem cells (ESCs), CGR8-2Luc cells were plated at 45,000 cells/cm^2 on 0.1 % gelatin-coated dishes in BHK21 medium, supplemented with 10 % fetal calf serum, L-glutamine, non-essential amino acids, penicillin/streptomycin, and leukemia inhibitory factor (LIF). After 24 h, compounds were added and incubated for 48 h, before luciferase expression and PI fluorescence were analyzed. In all experiments, methylmercury was used as a positive control at a concentration of 5 µM.
Luciferase activities were measured with a Dual-Luciferase™ Reporter system kit. CGR8-2Luc ES cells were lysed in 96-well plates according to the manufacturer’s instructions. Luminescence measurements were performed on a Fluostar Optima reader. Luminescence counts were expressed as percentage of promoter activity normalized by comparison with the control wells treated by DMSO. […] parameters were measured in homogenates of ESCs and in ESC-derived neurons: (1) FLuc, reflecting the activity of early neural promoter Tα1. FLuc increases during neuronal differentiation. Many neurotoxic compounds may affect FLuc expression, either through impact on neuronal differentiation, through changes of neuronal gene expression, or through killing of neurons.
After measurement of luciferase activity, DNA quantity was determined by PI assay, as previously described (Xu et al. [2014]). PI was added to cell homogenates after the luciferase test, at a final concentration of 50 µg/ml and incubated for 2 h. After incubation, fluorescence intensity was measured on a Flexstation 3 microplate reader (Excitation: 544 nm ± 15 nm; Emission: 620 nm ± 15 nm). Results are expressed as percentage of control. Propidium iodide (PI) measures total DNA content as an approximation of the cell number.

| Structure (SMILES) | LOAEL ESC Tα1 [1] [µM] | LOAEL Neurons EF1α [2] [µM] | LOAEL ESC EF1α [2] [µM] | LOAEL ESC DNA [3] [µM] | LOAEL Neurons DNA [4] [µM] | class based on clinical evidence for neurotoxicity [5] | In vitro EC20 in ESC ([6]; in vitro toxicity data expressed as EC20) [nM] | effect on promoter activities in undifferentiated cells ([6]; non-cytotoxic concentrations) |
| --- | --- | --- | --- | --- | --- | --- | --- | --- |
| COC1=C2C[C@@H](C)C[C@H](OC)[C@H](O)[C@@H](C)/C=C(\C)[C@H](OC(N)=O)[C@@H](OC)/C=C\C=C(/C)C(=O)NC(=CC1=O)C2=O [Geldanamycin] | 0.005 | 0.05 | 0.5 | 0.05 | 0.05 | Possibly (developmental) | 10 | – |
| CCCC(CCC)C(=O)O [Valproic acid] | 5000 | 5000 | 5000 | 5000 | 5000 | Well-established (developmental) | – | enhanced the activities of neuronal and/or general promoters |
